Results: patent US5236926A, “9-substituted-8-halo or -8-hydroxy-9-deazaguanines as inhibitors or PNP for pharmaceutical compositions” (Warner-Lambert Company, priority 1992, dated 1993)

Experiments:
[1] = tested on: skin graft in dogs; settings: cited from earlier work
[2] = target: T1, purine nucleoside phosphorylase (PNP-4) (Homo sapiens, UniProt P00491); assay: PNP-4 enzyme assay (radiochemical, [14C]-hypoxanthine formation from [14C]inosine); assay type: biochemical; settings: human erythrocyte as enzyme source; activity table
T1 construct: using human erythrocyte as the enzyme source; from tissue; host or cells: human erythrocyte
T1 sequence (P00491 1-289): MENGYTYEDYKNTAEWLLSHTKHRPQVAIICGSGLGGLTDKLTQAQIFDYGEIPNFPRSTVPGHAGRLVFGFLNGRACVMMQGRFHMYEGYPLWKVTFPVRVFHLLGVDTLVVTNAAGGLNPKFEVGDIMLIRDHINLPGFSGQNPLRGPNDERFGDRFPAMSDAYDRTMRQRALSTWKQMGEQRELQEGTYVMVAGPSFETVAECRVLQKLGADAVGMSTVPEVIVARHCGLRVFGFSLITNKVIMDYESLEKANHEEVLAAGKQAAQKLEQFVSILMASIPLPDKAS
Method: In the purine nucleoside phosphorylase (PNP-4) enzyme assay, an IC50 is achieved at a dose of about from 0.9 to 3.18 micromoles on selected compounds of the present invention. PNP-4 activity for the compounds of Formula I is measured radiochemically by measuring the formation of [^14 -C]-hypoxanthine from [^14 -C]inosine [Biomedicine 33:39 (1980)]using human erythrocyte as the enzyme source. An in vivo inhibition of purine nucleoside phosphorylase (HPLC-1) enzyme assay is used essentially as disclosed in the Annals of New York Academy of Sciences 451:313 (1985) to further show the activity of the compounds of Formula I of the present invention. […] Since removal of T-cells or modulation of T-cells are beneficial in the treatment of autoimmune diseases, these compounds being selectively cytotoxic to T-cells will, therefore, be useful in their treatment. […] Clinically it has been shown that modulation and/or removal of T-cells by thoracic duct drainage, lymphapheresis, or total lymphoid irradiation gave partial to complete relief from rheumatoid arthritis in patients who were totally refractory to other forms of therapy [A. Tanay, et al, Arthritis and Rheumatism 30(1):1 (1987); S. Strober, et al, Annual of Internal Medicine V-102(4):441-449 (1985); H. G. Nusslein, et al, Arthritis and Rheumatism V-28(11):1205-1210 (1985); E. Brahn, et al, ibid V-27(5):481-487 (1984); and J. Karsh, et al, ibid V 24(7):867-873. (1981)]. […] N. Ellis, et al, JAMA V-256( 22):3110-3116 (Dec. 12, 1986).

Structure (SMILES) | IC50 [2] [µM] | inhibition of rejection of skin graft [1]
Nc1nc2c(nc(N)n2[C@@H]2O[C@H](CO)[C@@H](O)[C@H]2O)c(=O)[nH]1 [8-Aminoguanosine] | – | efficacious for inhibiting rejection of skin graft in dogs
Nc1nc2c(Cc3ccsc3)c(I)[nH]c2c(=O)[nH]1 [Example 5] | > 30 | –
Nc1nc2c(Cc3ccsc3)c(Cl)[nH]c2c(=O)[nH]1 [Example 6, 2-Amino-6-chloro-3,5-dihydro-7-(3-thienylmethyl)-4H-pyrrolo[3,2-d]pyrimidin-4-one] | 2.77 | –

The next lines start with results.

IC50 [2] [µM] | Structure (SMILES) | inhibition of rejection of skin graft [1]
6.9 | Nc1nc2c(Cc3ccsc3)c(Br)[nH]c2c(=O)[nH]1 [Example 3, 2-Amino-6-bromo-3,5-dihydro-7-(3-thienylmethyl)-4H-pyrrolo[3,2-d]pyrimidin-4-one] | –
0.15 | Nc1nc2c(Cc3ccsc3)c(F)[nH]c2c(=O)[nH]1 [Example 8, 2-Amino-6-fluoro-3,5-dihydro-7-(3-thienylmethyl) 4H-pyrrolo[3,2-d]pyrimidin-4 one] | –
